Assays:
[1] = system: Serratia marcescens expressing IMP-1 (CL5741); type: cell-based; details: with imipenem 1 μg/ml, 95% inhibition of bacterial growth; for Serratia marcescens MITC95: IMP-1 (CL5741)
Method in brief: (§1)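 Restoration of imipenem susceptibility (1 μg/ml imipenem) was judged by absorbance after 22–24 h at 35° C. Test compound was added to bacteria suspended 1:100 in 1.1× CAMHB from overnight blood-agar cultures.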

[2] = system: Klebsiella pneumoniae expressing VIM-1 (IHMA599644); type: cell-based; details: with imipenem 1 μg/ml, 95% inhibition of bacterial growth; for Klebsiella pneumoniae MITC95: VIM-1 (IHMA599644)
Method in brief: as §1

[3] = system: Escherichia coli expressing NDM-1 (CLB30005, CLB30016); type: cell-based; details: with imipenem 1 μg/ml, 95% inhibition of bacterial growth; for Escherichia coli MITC95: NDM-1 (CLB30016)
Method in brief: as §1

VIM-1 = VIM-1 (Pseudomonas aeruginosa (strain ATCC 15692 / DSM 22644 / CIP 104116 / JCM 14847 / LMG 12228 / 1C / PRS 101 / PAO1), UniProt A0A0F7KYQ8); test: biochemical; details: CCF2-FA substrate, 2 hours at 25° C
Method in brief: (§2)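 Enzyme activity was measured by fluorescence using CCF2-FA, a cephalosporin-linked 7-hydroxycoumarin/fluorescein substrate, with inhibitor, metallo-β-lactamase and substrate incubated together for 2 hours at 25° C. IC50 came from a 4-parameter fit of inhibition versus log inhibitor concentration.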

[4] = system: P. aeruginosa expressing IMP-1, efflux− (MB9799); test: Efflux: concentration of MBL inhibitor which restores susceptibility to imipenem; type: cell-based, Pseudomonas aeruginosa; details: imipenem at 2 μg/mL, in the presence of a class A, C, D serine β-lactamase inhibitor closely related to relebactam
Source text: (§3) The strain background is Pseudomonas aeruginosa PAO1.

IMP-1 = IMP-1 (Serratia marcescens, UniProt P52699); test: biochemical; type: biochemical; details: CCF2-FA substrate, 2 hours at 25° C; read-out: IMP-1 IC50
Sequence of IMP-1 (P52699 whole entry, looked up, species assumed): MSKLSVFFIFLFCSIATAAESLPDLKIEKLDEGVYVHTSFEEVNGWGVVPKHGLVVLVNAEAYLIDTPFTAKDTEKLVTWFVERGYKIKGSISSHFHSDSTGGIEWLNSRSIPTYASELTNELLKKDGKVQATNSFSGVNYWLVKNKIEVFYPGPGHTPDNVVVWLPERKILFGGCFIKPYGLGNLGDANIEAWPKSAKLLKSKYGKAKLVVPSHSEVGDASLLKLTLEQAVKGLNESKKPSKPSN
Method in brief: as §2

NDM-1 = NDM-1 (Klebsiella pneumoniae, UniProt C7C422); test: biochemical; type: biochemical; details: CCF2-FA substrate, 2 hours at 25° C; read-out: NDM-1 IC50
Sequence of NDM-1 (C7C422 whole entry, looked up, species assumed): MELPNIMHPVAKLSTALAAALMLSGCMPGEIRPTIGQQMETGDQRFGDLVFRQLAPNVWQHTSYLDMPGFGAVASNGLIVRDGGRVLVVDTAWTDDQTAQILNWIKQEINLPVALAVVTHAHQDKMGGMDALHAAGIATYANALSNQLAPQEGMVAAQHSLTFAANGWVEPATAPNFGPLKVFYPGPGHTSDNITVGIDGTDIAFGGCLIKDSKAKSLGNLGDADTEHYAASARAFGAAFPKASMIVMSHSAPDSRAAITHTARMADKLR
Method in brief: as §2

[5] = system: P. aeruginosa expressing IMP-1, efflux+ (MB9798); type: cell-based, Pseudomonas aeruginosa; details: for P. aeruginosa expressing IMP-1, efflux+ (MB9798) MITC95: imipenem at 2 μg/mL, in the presence of a class A, C, D serine β-lactamase inhibitor closely related to relebactam; for Efflux ratio: ratio MITC95 PA_9798/MITC95 PA_9799
Source text: as §3

| Compound | Serratia marcescens expressing IMP-1 (CL5741) MITC95 [1] [µM] | Klebsiella pneumoniae expressing VIM-1 (IHMA599644) MITC95 [2] [µM] | Escherichia coli expressing NDM-1 (CLB30016) MITC95 [3] [µM] | IC50 (VIM-1) [nM] | P. aeruginosa expressing IMP-1, efflux− (MB9799) MITC95 [4] [µM] | IC50 (IMP-1) [nM] | IC50 (NDM-1) [nM] | P. aeruginosa expressing IMP-1, efflux+ (MB9798) MITC95 [5] [µM] | Efflux ratio [5] | Serratia marcescens MITC95 [1] [µM] | Klebsiella pneumoniae MITC95 [2] [µM] | Escherichia coli MITC95 [3] [µM] |
| --- | --- | --- | --- | --- | --- | --- | --- | --- | --- | --- | --- | --- |
| NS(=O)(=O)c1c(S(=O)(=O)C2CNC2)ccc(-c2ccc3ccncc3c2)c1-c1nnn[nH]1.O=C(O)C(F)(F)F [Example 131, 3-((4-(isoquinolin-7-yl)-2-sulfamoyl-3-(1H-tetrazol-5-yl)phenyl)sulfonyl)azetidin-1-ium 2,2,2-trifluoroacetate] | 3.125 | 3.125 | 0.7813 | 0.13 | 1.563 | 0.51 | 0.345 | 25 | 15.99 | – | – | – |
| C[C@H](CN)S(=O)(=O)c1ccc(-c2cccc3nc(N)[nH]c23)c(-c2nn[nH]n2)c1S(N)(=O)=O [Example 277, 3-(2-amino-3H-benzo[d]imidazol-4-yl)-6-((R)-1-aminopropan-2-ylsulfonyl)-2-(2H-tetrazol-5-yl)benzenesulfonamide] | – | – | – | 0.362 | 0.7813 | 1.37 | 0.527 | 1.563 | 2.00 | 0.7813 | 1.563 | 0.3906 |
| NS(=O)(=O)c1c(S(=O)(=O)C2CNC2)ccc(-c2cccc3c2CNC3=O)c1-c1nnn[nH]1.O=C(O)C(F)(F)F [Example 113, 3-((4-(1-oxoisoindolin-4-yl)-2-sulfamoyl-3-(1H-tetrazol-5-yl)phenyl)sulfonyl)azetidin-1-ium 2,2,2-trifluoroacetate] | 3.125 | 6.25 | 1.563 | 0.164 | 1.563 | 6.06 | 0.137 | 12.5 | 8.00 | – | – | – |
| Nc1nc2c(-c3ccc(S(=O)(=O)[C@H]4CN[C@H](CO)C4)c(S(N)(=O)=O)c3-c3nn[nH]n3)cccc2s1 [Example 292, 3-(2-aminobenzo[d]thiazol-4-yl)-6-((3R,5S)-5-(hydroxymethyl)pyrrolidin-3-ylsulfonyl)-2-(2H-tetrazol-5-yl)benzenesulfonamide] | – | – | – | 0.332 | 1.563 | 0.27 | 0.161 | 1.563 | 1.00 | 1.563 | 3.125 | 3.125 |
| NCCS(=O)(=O)c1ccc(-c2cccc3c2nc(N)n3C2CNC2)c(-c2nn[nH]n2)c1S(N)(=O)=O [Example 202, 3-(2-amino-1-(azetidin-3-yl)-1H-benzo[d]imidazol-4-yl)-6-((2-aminoethyl)sulfonyl)-2-(2H-tetrazol-5-yl)benzenesulfonamide] | 3.125 | 3.125 | 1.563 | 1.1 | 1.563 | 0.859 | 2.92 | 6.25 | 4.00 | – | – | – |
| CS(=O)(=O)N1CCC(S(=O)(=O)c2ccc(-c3cccc4nc(N)[nH]c34)c(-c3nn[nH]n3)c2S(N)(=O)=O)CC1 [Example 45, 3-(2-amino-3H-benzo[d]imidazol-4-yl)-6-(1-(methylsulfonyl)piperidin-4-ylsulfonyl)-2-(2H-tetrazol-5-yl)benzenesulfonamide] | 6.25 | 6.25 | 25 | 0.135 | 3.125 | 1.69 | 0.29 | 50 | 16.00 | – | – | – |
| NS(=O)(=O)c1c(S(=O)(=O)C2CNC2)ccc(-c2cccc3cn[nH]c23)c1-c1nnn[nH]1 [Example 297, 6-(azetidin-3-ylsulfonyl)-3-(1H-indazol-7-yl)-2-(1H-tetrazol-5-yl)benzenesulfonamide] | – | – | – | 0.282 | 0.7813 | 0.596 | 0.217 | 1.563 | 2.00 | 1.563 | 3.125 | 1.563 |
| Nc1nc2c(-c3ccc(S(=O)(=O)C4CCNCC4)c(S(N)(=O)=O)c3-c3nn[nH]n3)cccc2[s+]1[O-] (stereo not drawn) [Example 316, 3-(2-amino-1-oxidobenzo[d]thiazol-4-yl)-6-(piperidin-4-ylsulfonyl)-2-(2H-tetrazol-5-yl)benzenesulfonamide] | – | – | – | 0.779 | 6.25 | 0.835 | 0.284 | 6.25 | 1.00 | 12.5 | 12.5 | 6.25 |
| NS(=O)(=O)c1c(S(=O)(=O)C2CNC2)ccc(-c2cnc(N3CCCC3)s2)c1-c1nnn[nH]1.O=C(O)C(F)(F)F [Example 121, 3-((4-(2-(pyrrolidin-1-yl)thiazol-5-yl)-2-sulfamoyl-3-(1H-tetrazol-5-yl)phenyl)sulfonyl)azetidin-1-ium 2,2,2-trifluoroacetate] | 3.125 | 6.25 | 0.7813 | 1.44 | 1.563 | 3.57 | 0.74 | 200 | 127.96 | – | – | – |
| NCCS(=O)(=O)c1ccc(-c2cccc(NC(=O)CN)c2)c(-c2nn[nH]n2)c1S(N)(=O)=O [Example 333, 2-Amino-N-(4′-((2-aminoethyl)sulfonyl)-3′-sulfamoyl-2′-(2H-tetrazol-5-yl)-[1,1′-biphenyl]-3-yl)acetamide] | – | – | – | 0.312 | 0.7813 | 10.3 | 3.44 | 6.25 | 8.00 | 1.563 | 1.563 | 0.3906 |
| C[C@H](CN)S(=O)(=O)c1ccc(-c2cccc3c2nc(N)n3C)c(-c2nn[nH]n2)c1S(N)(=O)=O [Example 279, 3-(2-amino-1-methyl-1H-benzo[d]imidazol-4-yl)-6-((R)-1-aminopropan-2-ylsulfonyl)-2-(2H-tetrazol-5-yl)benzenesulfonamide] | – | – | – | 0.47 | 0.7813 | 0.695 | 0.806 | 3.125 | 4.00 | 1.563 | 1.563 | 0.3906 |
| NS(=O)(=O)c1c(S(=O)(=O)[C@H]2CCNC2)ccc(-c2cccc3nc(C(=O)O)[nH]c23)c1-c1nn[nH]n1 [Example 290, 7-(4-((S)-pyrrolidin-3-ylsulfonyl)-3-sulfamoyl-2-(2H-tetrazol-5-yl)phenyl)-1H-benzo[d]imidazole-2-carboxylic Acid] | – | – | – | 0.5 | 1.563 | 2.96 | 0.472 | 6.25 | 4.00 | 3.125 | 3.125 | 3.125 |
| C[C@H](N)CS(=O)(=O)c1ccc(-c2cccc3sc(N)nc23)c(-c2nn[nH]n2)c1S(N)(=O)=O [Example 93, 3-(2-aminobenzo[d]thiazol-4-yl)-6-((S)-2-aminopropylsulfonyl)-2-(2H-tetrazol-5-yl)benzenesulfonamide] | 0.7813 | 3.125 | 1.172 | 0.13 | 0.7813 | 0.13 | 0.0732 | 0.7813 | 1.00 | – | – | – |
